Reference: US11090304B2 (Amgen Inc., priority 2018, dated 2021)
Where two headings read alike, the source gives them in different places.

What was measured:
[1] = tested on: Phosphorylation of ERK1/2 in MIA PaCa-2 cells; assay: Phospho-ERK1/2 MSD assay in MIA PaCa-2 cells; type: cell-based; details: read-out: p-ERK IC50 (2 h; MIA PaCa-2), 2 h compound treatment
In short: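 MSD electrochemiluminescence readout of phospho-ERK1/2 in whole-cell lysates, IC50 by 4-parameter logistic fit. Compound titrations were applied for 2 or 4 h at 37 °C, 5% CO2, followed by 10 ng/mL EGF stimulation for 10 min before lysis.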

[2] = molecular target: GDP-bound KRAS protein (aa 1-169), containing both G12C and C118A amino acid substitutions (Homo sapiens, UniProt P01116, C118A/G12C); assay: Coupled nucleotide exchange assay (SOS-mediated, AlphaScreen); type: biochemical; details: 5 min compound pre-incubation
Sequence of GDP-bound KRAS protein (aa 1-169), containing both G12C and C118A amino acid substitutions (P01116 1-169 isoform P01116-2 G12C/C118A): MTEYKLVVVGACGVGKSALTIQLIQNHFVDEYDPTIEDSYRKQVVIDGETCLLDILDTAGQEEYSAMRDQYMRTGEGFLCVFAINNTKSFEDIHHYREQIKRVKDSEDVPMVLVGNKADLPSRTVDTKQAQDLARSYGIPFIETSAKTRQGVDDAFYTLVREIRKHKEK

Structure (SMILES)	IC50 ([1]; Homo sapiens, MIA PaCa-2, 2 h) [nM]	Coupled exchange IC50 (5 min) [2]	IC50 [1] [nM]	IC50 ([2]; read-out: Coupled exchange IC50 (5 min)) [nM]
C=CC(=O)N1CCN(c2nc(=O)n(-c3c(CN(C)C)ccnc3C(C)C)c3nc(-c4ccccc4F)c(Cl)cc23)[C@@H](C)C1 (atropisomer, axis not shown; (M)) [Example 152, (M)-6-Chloro-1-(4-((dimethylamino)methyl)-2-(2-propanyl)-3-pyridinyl)-7-(2-fluorophenyl)-4-((2S)-2-methyl-4-(2-propenoyl)-1-piperazinyl)pyrido[2,3-d]pyrimidin-2(1H1)-one]	–	–	21	84
C=CC(=O)N1CCN(c2nc(=O)n(-c3cccnc3C(C)C)c3nc(-c4ccccc4F)c(Cl)cc23)[C@@H](C)C1 (single isomer, unassigned) [Example 54-9-2]	–	0.046 | nda μM	34	–
C=CC(=O)N1CCN(c2nc(=O)n(-c3ccccc3C3CCC3)c3nc(-c4c(O)cccc4F)c(Cl)cc23)[C@@H](C)C1 (single isomer, unassigned) [Example 54-10-2]	60	0.071 | nda μM	–	–
C=CC(=O)N1CCN(c2nc(=O)n(-c3cccnc3C(C)C)c3nc(-c4c(O)cccc4F)c(Cl)cc23)[C@@H](C)C1 (single isomer, unassigned) [Example 54-11-1]	–	0.049 | nda μM	54	–
C=CC(=O)N1CCN(c2nc(=O)n(-c3ccccc3C3CCC3)c3nc(-c4ccccc4F)c(Cl)cc23)[C@@H](C)C1 (single isomer, unassigned) [Example 54-12-1]	–	0.13 | nda μM	78	–
C=CC(=O)N1CCN(c2nc(=O)n(-c3ccccc3C(C)C)c3nc(-c4cc(OC(F)F)ccc4F)c(Cl)cc23)[C@@H](C)C1 (single isomer, unassigned) [Example 54-51-1]	263	0.108 | nda μM	–	–
C=CC(=O)N1CCN(c2nc(=O)n(-c3c(OC)cccc3C(C)C)c3nc(-c4c(O)cccc4F)c(Cl)cc23)[C@@H](C)C1 (single isomer, unassigned) [Example 54-73-1]	–	0.025 | nda μM	38	–

Second part, the molecule after the results:

IC50 ([1]; Homo sapiens, MIA PaCa-2, 2 h) [nM]	Coupled exchange IC50 (5 min) [2]	IC50 [1] [nM]	IC50 ([2]; read-out: Coupled exchange IC50 (5 min)) [nM]	Structure (SMILES)
237	0.065 | nda μM	–	–	C=CC(=O)N1CCN(c2nc(=O)n(-c3c(C)cc[n+]([O-])c3C(C)C)c3nc(-c4ccccc4F)c(Cl)cc23)C(C)C1 (atropisomer, axis not shown; (M)) [Example 151, (M)-6-Chloro-7-(2-fluorophenyl)-1-(4-methyl-1-oxido-2-(2-propanyl)-3-pyridinyl)-4-((2S)-2-methyl-4-(2-propenoyl)-1-piperazinyl)pyrido[2,3-d]pyrimidin-2(1H)-one]
–	0.343 | nda μM	174	–	C=CC(=O)N1CCN(c2nc(=O)n(-c3cccnc3C(C)C)c3nc(-c4c(O)cccc4F)c(Cl)cc23)[C@@H](C)C1 (single isomer, unassigned) [Example 54-11-2]
–	0.949 | nda μM	689	–	C=CC(=O)N1CCN(c2nc(=O)n(-c3ccccc3C3CCC3)c3nc(-c4ccccc4F)c(Cl)cc23)[C@@H](C)C1 (single isomer, unassigned) [Example 54-12-2]
–	0.044 | nda μM	36	–	C=CC(=O)N1CCN(c2nc(=O)n(-c3c(C(C)C)ccnc3C)c3nc(-c4ccccc4F)c(Cl)cc23)[C@@H](C)C1 (single isomer, unassigned) [Example 54-18-1]
–	0.729 | nda μM	643	–	C=CC(=O)N1CCN(c2nc(=O)n(-c3c(C(C)C)ccnc3C)c3nc(-c4ccccc4F)c(Cl)cc23)[C@@H](C)C1 (single isomer, unassigned) [Example 54-18-2]
–	0.368 | nda μM	927	–	C=CC(=O)N1CCN(c2nc(=O)n(-c3c(OC)cccc3C(C)C)c3nc(-c4c(O)cccc4F)c(Cl)cc23)[C@@H](C)C1 (single isomer, unassigned) [Example 54-73-2]
853	0.419 | nda μM	–	–	C=CC(=O)N1CCN(c2nc(=O)n(-c3ccccc3C(C)C)c3nc(C4=CCCCC4)c(Cl)cc23)[C@@H](C)C1 (single isomer, unassigned) [Example 54-75-1]
